Literature values in US11771690B2, “Solid particle, preparation method therefor, and pharmaceutical composition containing solid particle” (SHANGHAI WD PHARMACEUTICAL CO., LTD, priority 2018, dated 2023).

solubility in water: insoluble
SMILES: C[C@]12C=CC(=O)N[C@@H]1CC[C@@H]1[C@@H]2CC[C@]2(C)[C@@H](C(=O)Nc3cc(C(F)(F)F)ccc3C(F)(F)F)CC[C@@H]12 [Dutasteride, (5α,17β)-N-{2,5-bis(trifluoromethyl)phenyl}-3-oxo-4-azaandrost-1-ene-17-carboxamide]
